Test results published in US6342582B1, “Reaction and dissolving medium for peptides and synthesis method using this medium” (Rhodia Chimie, priority 1990, dated 2002).
Counter-ions that a name gives are not always drawn. Blank lines part the entries; values can stand above or below the molecule they belong to. Where a SMILES comes first, the peptide text is derived from it. The star is where a group is joined. OBn = c1ccc(CO*)cc1

Experiments:
[1] = Dissolving experiments: solubility of the peptide intermediate in solvent or solvent/additive mixture; settings: 25° C.; for Solubility in 4/1 dichloromethane/dimethylformamide: comparison, additive not part of the invention; for Solubility in the 4/1 dichloromethane/phenol mixture: 4/1 dichloromethane/phenol by weight
Procedure: Protocol for dissolving experiments
The solubilities of the peptide intermediate were determined as follows, at a temperature of 25° C.
An accurately weighed amount of the peptide intermediate is placed in a Pyrex tube. The solvent or mixture of solvents to be tested is then introduced using a precision pipette so as to obtain a ratio of mass of peptide/volume of solvent of 8 g/100 cm^3.
The tube, closed by a screw stopper, is then placed on a HEIDOLPH agitator, TOP-MIX model, vibrating at its maximum speed for 60 seconds.
If not, the volume of solvent is doubled and the procedure is started again.
At the end of 4 successive dilutions without complete dissolution, the measurements are repeated on a smaller amount of solid.
Remarks: The composition of the solvent/additive mixtures is expressed by weight.

[2] = Solubility in dichloromethane determined by HPLC, external standardization, on a saturated solution; format: physicochemical
Procedure: The solubility in dichloromethane was determined by HPLC, using external standardization, on a saturated solution of Boc-Gly5-OCH3.
The solubility in dichloromethane was determined by HPLC, by external standardization on the supernatant of a saturated solution; the other solubilities were determined as in Example 1: […]

[3] = Distribution of the peptide between dichloromethane (with phenol) and water; format: physicochemical; settings: dichloromethane (12 cm^3) + 3.9 g phenol / aqueous KHCO3 2 N (3 cm^3); HPLC
Procedure: With a view to purification of this tetrapeptide, by washing with water at the end of its synthesis, the distribution of this peptide between dichloromethane and water was studied as follows.
A solution of Gly-Gly-Phe-Leu-OBzl hydrochloride (0.9 mmole) in dichloromethane (12 cm^3) is stirred vigorously in the presence of an aqueous KHCO3 solution (2 N; 3 cm^3). This mixture yields an emulsion which remains stable for several days. A comparative experiment was carried out in the presence of phenol:
A distribution experiment carried out in accordance with Example 15 after the addition of 3.9 g of phenol to the organic solution yields, after identical stirring, two clear liquid phases, the settling out of which is complete in less than 15 minutes.

[4] = comparison additive, concentrations lower than 2 g/100 cm^3 were not tested

SMILES: NC(=O)CNC(=O)[C@@H]1CCCN1 [Pro-Gly-NH2.HCl, L-prolyl-glycinamide hydrochloride] (H-Pro-Gly-NH2)
- Solubility in 4/1 dichloromethane/dimethylformamide [1]: s < 0.5 g/100 cm^3
- Solubility in the 4/1 dichloromethane/phenol mixture [1]: s > 16 g/100 cm^3
- Solubility in dichloromethane [1]: s < 0.05 g/100 cm^3

- Solubility in the 4/1 dichloromethane/phenol mixture [1]: s = 2 g/100 cm^3
- Solubility in dichloromethane [1]: s < 0.05 g/100 cm^3
SMILES: NC(N)=NCCC[C@H](N)C(=O)N1CCC[C@H]1C(=O)O [Afg-Pro.2HCl, L-arginyl-L-proline dihydrochloride] (H-Arg-Pro-OH)

SMILES: COC(=O)CNC(=O)CNC(=O)CNC(=O)CNC(=O)CNC(=O)OC(C)(C)C [Boc-Gly5-OCH3, N-tert-butoxycarbonylpentaglycine methyl ester]
- Solubility in dichloromethane (HPLC) [2]: s = 0.33 g/100 cm^3
- Solubility in 2-chlorophenol ([1]; 2-chlorophenol alone): s > 8 g/100 cm^3
- Solubility in 4/1 anisole/phenol ([1]; 4/1 anisole/phenol by weight): s = 4 g/100 cm^3
- Solubility in the 4/1 dichloromethane/phenol mixture [1]: s = 4 g/100 cm^3
- Solubility in 20/1 dichloromethane/phenol ([1]; 20/1 dichloromethane/phenol by weight): s = 0.5 g/100 cm^3
- Solubility in anisole ([1]; anisole): s < 0.05 g/100 cm^3

- Share of the tetrapeptide employed found in the aqueous phase [3]: 0.4%
SMILES: CC(C)C[C@H](NC(=O)[C@H](Cc1ccccc1)NC(=O)CNC(=O)CN)C(=O)OCc1ccccc1 [Gly-Gly-Phe-Leu-OBzl, Glycyl-glycyl-L-phenylalanyl-L-leucine benzyl ester] (H-GGFL-OBn)

SMILES: N[C@@H](Cc1c[nH]cn1)C(=O)N[C@@H](Cc1c[nH]c2ccccc12)C(=O)O [His,Trp.HCl, L-histidinyl-L-tryptophan hydrochloride]
- Solubility in the 4/1 dichloromethane/phenol mixture [1]: s = 2 g/100 cm^3
- Solubility in dichloromethane [1]: s < 0.05 g/100 cm^3

SMILES: CC(C)(C)OC(=O)NCC(=O)NCC(=O)NCC(=O)NCC(=O)NCC(=O)OCc1ccccc1 [Boc-Gly-Gly-Gly-Gly-Gly-O-CH2-Ph, N-tert-butoxycarbonylpentaglycine benzyl ester]
- Solubility in dichloromethane (HPLC) [2]: s = 0.07 g/100 cm^3
- Solubility in 9/1 dichloromethane/phenol ([1]; 9/1 dichloromethane/phenol by weight): s > 5 g/100 cm^3
- Solubility in 9/1 dichloromethane/2-octanol [1, 4]: s < 2 g/100 cm^3
- Solubility in 9/1 dichloromethane/dimethylformamide [1, 4]: s < 2 g/100 cm^3
- Solubility in 9/1 dichloromethane/pivalic acid [1, 4]: s < 2 g/100 cm^3
- Solubility in 9/1 dichloromethane/trifluoroethanol [1, 4]: s < 2 g/100 cm^3
- Solubility in dichloromethane saturated with LiCl [1, 4]: s < 2 g/100 cm^3

SMILES: COC(=O)[C@H](Cc1ccc(O)cc1)NC(=O)[C@@H](N)CO [Ser-Tyr-OCH3.HCl, L-serinyl-L-tyrosine methyl ester hydrochloride] (H-Ser-Tyr-OMe)
- Solubility in dichloromethane [1]: s < 0.05 g/100 cm^3

- Solubility in 4/1 dichloromethane/3-trifluoromethylphenol ([1]; 4/1 dichloromethane/3-trifluoromethylphenol by weight): s = 4 g/100 cm^3
- Solubility in 4/1 dichloromethane/4-methoxyphenol ([1]; 4/1 dichloromethane/4-methoxyphenol by weight): s = 4 g/100 cm^3
- Solubility in 4/1 dichloromethane/dimethylformamide [1]: s < 0.5 g/100 cm^3
- Solubility in the 4/1 dichloromethane/phenol mixture [1]: s = 4 g/100 cm^3
- Solubility in 5/1 dichloromethane/2-hydroxypyridine ([1]; 5/1 dichloromethane/2-hydroxypyridine by weight): s = 1 g/100 cm^3
- Solubility in dichloromethane [1]: s < 0.05 g/100 cm^3
SMILES: CC(C)C[C@H](N)C(=O)N[C@@H](CCCNC(=N)N)C(=O)N1CCC[C@H]1C(=O)NCC(N)=O [Leu-Arg-Pro-Gly-NH2.HCl, L-leucyl-L-arginyl-L-prolyl-glycinamide hydro-chloride] (H-LRPG-NH2)
